From US20130131161A1, “METHODS AND COMPOSITIONS FOR CARDIOVASCULAR DISEASES AND CONDITIONS” (priority 2009, published 2013)
“And” between values parts separate entries of the source, which are not always exact repeats. Identical values can stand only once.

Tested on: Human umbilical vein endothelial cells (HUVECs)
Assay: eNOS activity analysis: NO, ONOO− and NO/ONOO− release from HUVECs of 50 genotyped donors in response to LA-419 (Example 2)
Assay type: cell-based
Settings: LA-419 1 μM
Procedure: Concurrent measurements of NO and ONOO^− were carried out with tandem electrochemical nanosensors combined into one working unit with a total diameter of 200-500 nm (FIG. 1). Their design was based on previously developed and well-characterized chemically modified carbon-fiber technology (Malinski and Taha, 1992; Lvovich and Scheeline, 1997). Each of the nanosensors was made by depositing a sensing material on the tip of a carbon fiber (length 4-5 μm, diameter 0.2-0.5 μm). The fibers were sealed with nonconductive epoxy and electrically connected to copper wires with conductive silver epoxy. A conductive film of polymeric nickel (II) tetrakis(3-methoxy-4-hydroxyphenyl)porphyrin for the NO-sensor and polymeric film of Mn (III) [2.2]paracyclophanylporphyrin was used for the ONOO^−-sensor.
A module of NO/ONOO^− nanosensors (diameter 1-2 μm) with a platinum wire (0.1 mm) counter electrode and saturated calomel reference electrode (SCE) were applied. Differential pulse voltammetry (DPV) and amperometry were performed with a computer-based Gamry VFP600 multichannel potentiostat. DPV was used to measure the basal NO and ONOO^− concentrations, and amperometry was used to measure changes in NO and ONOO^− concentrations from its basal level with time. The DPV current at the peak potential characteristic for NO oxidation (0.65 V) and ONOO^− reduction (−0.45 V) was directly proportional to the local concentrations of these compounds in the immediate vicinity of the sensor. Linear calibration curves (current vs. concentration) were constructed for each sensor from 10 nM to 3 μM before and after measurements with aliquots of NO and ONOO^− standard solutions, respectively. The detection limit of the sensors was 1.0 nM.
The quantification of each analyte (concentration in nM) was performed using a maximum current from amperograms and standard calibration curves. A reproducibility of measurements with nanosensors is relatively high (between 5-12%). […] The sensors were slowly raised 5±2 μm from the surface of a single endothelial cell. The eNOS agonist, calcium ionophore A23187 (CaI) as well as the different drugs were then added to the surrounding media at the cell surface with a nanoinjector that was also positioned by a computer controlled-micromanipulator.
This example describes the genotype-specific response of the three major eNOS variants to 1 μM and 5 μM concentrations of LA-419. The three major genetic polymorphisms studied were the Glu298Asp variant (E298D or 894G→T) in exon 7 of […], the −786T→C variant in the promoter region, and the intron 4 polymorphism (VNTR). All of these variants have possible effects on the cardiovascular system and endothelial dysfunction. For this study, human umbilical vein endothelial cells (HUVECs) from 50 donors between 18 and 32 years of age were used.
For the analysis several analysis techniques were employed. First, the effect of genotype on NO and ONOO^− release was explored within the different concentrations of LA-419 (control, 1 μM, 5 μM), calculated as the average peak release (nmols/L) of NO, ONOO^−, and NO/ONOO^−. The effect of genotype on the net increase in NO, ONOO^−, and NO/ONOO^− for LA-419 (1 μM and 5 μM) as compared to control was also measured. In addition, an analysis was done on the effect of genotype on the % change in NO, ONOO^−, and NO/ONOO^− production for LA-419 (1 μM and 5 μM), calculated as:
% Change=[(avg. LA-419−avg. control)/(avg. control)]*100
Finally, an evaluation was undertaken concerning the effect of genotype on the production of NO, ONOO^−, and NO/ONOO^− as the fold difference of control for LA-419 (1 μM and 5 μM), calculated as:
Fold Difference=(avg. LA-419)/(avg. control)
Within each calculation technique the results were compared for statistical significance using a non-parametric ANOVA Kruskal-Wallace test or a non-parametric Mann-Whitney U test. Statistical significance was set at a p-value <0.05 in a two-tailed distribution. […]

[1] = HUVECs G894T + T-786C Combination of all genotypes other than G/G + T/T
[2] = HUVECs G894T + T-786C variant G/G + T/C
[3] = HUVECs G894T + T-786C variant G/G + T/T (Reference)
[4] = HUVECs G894T + T-786C variant G/T + C/C
[5] = HUVECs G894T + T-786C variant G/T + T/C
[6] = HUVECs G894T + T-786C variant G/T + T/T
[7] = HUVECs G894T + T-786C variant T/T + C/C
[8] = HUVECs G894T + T-786C variant T/T + T/C

SMILES: CC(=O)SC1COC2C(O[N+](=O)[O-])COC12 (stereo not drawn) [LA-419, S-(6-Nitro-oxi-hexahydro-furo[3,2-b]furan-3-1-il)thioacetate]
- Net increase over control NO/ONOO− (mean ± sd) [1]: −0.92 (0.90)
- Net increase over control ONOO− (mean ± sd) [1]: −42.43 (111.75) nmols/L
- Peak release NO (mean ± sd) [1]: 390.03 (73.13) nmols/L
- Peak release NO/ONOO− (mean ± sd) [1]: 1.29 (0.46)
- Peak release ONOO− (mean ± sd) [1]: 331.26 (91.43) nmols/L
- Net increase over control NO (mean ± sd) [2]: 5.33 (68.90) nmols/L
- Net increase over control NO/ONOO− (mean ± sd) [2]: −0.88 (0.63)
- Net increase over control ONOO− (mean ± sd) [2]: 13.13 (106.46) nmols/L
- Peak release NO (mean ± sd) [2]: 351.00 (88.83) nmols/L
- Peak release NO/ONOO− (mean ± sd) [2]: 1.09 (0.51)
- Peak release ONOO− (mean ± sd) [2]: 357.00 (94.18) nmols/L
- Net increase over control NO (mean ± sd) [3]: 31.22 (71.86) nmols/L
- Net increase over control NO/ONOO− (mean ± sd) [3]: 1.16 (9.12)
- Net increase over control ONOO− (mean ± sd) [3]: −32.54 (86.18) nmols/L
- Peak release NO (mean ± sd) [3]: 374.30 (78.06) nmols/L
- Peak release NO/ONOO− (mean ± sd) [3]: 1.19 (0.43)
- Peak release ONOO− (mean ± sd) [3]: 338.98 (81.16) nmols/L
- Net increase over control NO (mean ± sd) [4]: −53.67 (0) nmols/L
- Net increase over control NO/ONOO− (mean ± sd) [4]: −0.24 (0)
- Net increase over control ONOO− (mean ± sd) [4]: 228.33 (0) nmols/L
- Peak release NO (mean ± sd) [4]: 334.67 (0) nmols/L
- Peak release NO/ONOO− (mean ± sd) [4]: 0.64 (0)
- Peak release ONOO− (mean ± sd) [4]: 526.67 (0) nmols/L
- Net increase over control NO (mean ± sd) [5]: 76.26 (75.55) nmols/L
- Net increase over control NO/ONOO− (mean ± sd) [5]: −1.21 (1.06)
- Net increase over control ONOO− (mean ± sd) [5]: −81.10 (79.76) nmols/L
- Peak release NO (mean ± sd) [5]: 420.44 (56.87) nmols/L
- Peak release NO/ONOO− (mean ± sd) [5]: 1.44 (0.32)
- Peak release ONOO− (mean ± sd) [5]: 302.82 (59.66) nmols/L
- Net increase over control NO (mean ± sd) [6]: 28.92 (13.00) nmols/L
- Net increase over control NO/ONOO− (mean ± sd) [6]: −0.99 (1.06)
- Net increase over control ONOO− (mean ± sd) [6]: −2.83 (64.48) nmols/L
- Peak release NO (mean ± sd) [6]: 409.67 (64.25) nmols/L
- Peak release NO/ONOO− (mean ± sd) [6]: 1.37 (0.44)
- Peak release ONOO− (mean ± sd) [6]: 321.58 (90.82) nmols/L
- Net increase over control NO (mean ± sd) [7]: 20.67 (16.77) nmols/L
- Net increase over control NO/ONOO− (mean ± sd) [7]: −0.56 (0.56)
- Net increase over control ONOO− (mean ± sd) [7]: −42.44 (9.91) nmols/L
- Peak release NO (mean ± sd) [7]: 334.11 (83.36) nmols/L
- Peak release NO/ONOO− (mean ± sd) [7]: 0.96 (0.58)
- Peak release ONOO− (mean ± sd) [7]: 398.00 (131.00) nmols/L
- Net increase over control NO (mean ± sd) [8]: 20.83 (131.76) nmols/L
- Net increase over control NO/ONOO− (mean ± sd) [8]: 0.07 (0.61)
- Net increase over control ONOO− (mean ± sd) [8]: −227.83 (117.62) nmols/L
- Peak release NO (mean ± sd) [8]: 420.83 (4.48) nmols/L
- Peak release NO/ONOO− (mean ± sd) [8]: 1.80 (0.16)
- Peak release ONOO− (mean ± sd) [8]: 234.67 (23.10) nmols/L
- % Change Ratio, % Change NO/% Change ONOO− (mean ± sd) (HUVECs G894T variant G/G): 0.76 (8.64)
- Net increase over control NO (mean ± sd) (HUVECs G894T variant G/G): 23.26 (70.68) nmols/L and 23.26 (70.64) nmols/L
- Net increase over control NO/ONOO− (mean ± sd) (HUVECs G894T variant G/G): 0.53 (7.59)
- Net increase over control ONOO− (mean ± sd) (HUVECs G894T variant G/G): −18.49 (93.20) nmols/L
- Peak release NO (mean ± sd) (HUVECs G894T variant G/G): 367.13 (80.46) nmols/L
- Peak release NO/ONOO− (mean ± sd) (HUVECs G894T variant G/G): 1.16 (0.45)
- Peak release ONOO− (mean ± sd) (HUVECs G894T variant G/G): 344.53 (83.88) nmols/L
- % Change Ratio, % Change NO/% Change ONOO− (mean ± sd) (HUVECs G894T variant G/T): −1.15 (0.91)
- Net increase over control NO (mean ± sd) (HUVECs G894T variant G/T): 58.52 (72.43) nmols/L
- Net increase over control NO/ONOO− (mean ± sd) (HUVECs G894T variant G/T): −1.12 (1.02)
- Net increase over control ONOO− (mean ± sd) (HUVECs G894T variant G/T): −46.52 (105.03) nmols/L
- Peak release NO (mean ± sd) (HUVECs G894T variant G/T): 413.28 (58.46) nmols/L
- Peak release NO/ONOO− (mean ± sd) (HUVECs G894T variant G/T): 1.38 (0.38)
- Peak release ONOO− (mean ± sd) (HUVECs G894T variant G/T): 319.43 (81.89) nmols/L
- Net increase over control NO (mean ± sd) (HUVECs G894T variant G/T & T/T): 50.30 (71.57) nmols/L
- Net increase over control NO/ONOO− (mean ± sd) (HUVECs G894T variant G/T & T/T): −0.93 (0.99)
- Net increase over control ONOO− (mean ± sd) (HUVECs G894T variant G/T & T/T): −61.75 (109.14) nmols/L
- Peak release NO (mean ± sd) (HUVECs G894T variant G/T & T/T): 403.61 (63.52) nmols/L
- Peak release NO/ONOO− (mean ± sd) (HUVECs G894T variant G/T & T/T): 1.36 (0.43)
- Peak release ONOO− (mean ± sd) (HUVECs G894T variant G/T & T/T): 322.30 (90.85) nmols/L
- % Change Ratio, % Change NO/% Change ONOO− (mean ± sd) (HUVECs G894T variant T/T): −0.66 (1.02)
- Net increase over control NO (mean ± sd) (HUVECs G894T variant T/T): 20.73 (66.94) nmols/L
- Net increase over control NO/ONOO− (mean ± sd) (HUVECs G894T variant T/T): −0.31 (0.61)
- Net increase over control ONOO− (mean ± sd) (HUVECs G894T variant T/T): −116.60 (117.55) nmols/L
- Peak release NO (mean ± sd) (HUVECs G894T variant T/T): 368.80 (75.73) nmols/L
- Peak release NO/ONOO− (mean ± sd) (HUVECs G894T variant T/T): 1.29 (0.63)
- Peak release ONOO− (mean ± sd) (HUVECs G894T variant T/T): 332.67 (129.30) nmols/L
- Net increase over control NO (mean ± sd) (HUVECs Intron 4 variant a/a): −25.78 (104.49) nmols/L
- Net increase over control NO/ONOO− (mean ± sd) (HUVECs Intron 4 variant a/a): −0.11 (0.56)
- Net increase over control ONOO− (mean ± sd) (HUVECs Intron 4 variant a/a): 26.11 (116.99) nmols/L
- Peak release NO (mean ± sd) (HUVECs Intron 4 variant a/a): 360.56 (80.60) nmols/L
- Peak release NO/ONOO− (mean ± sd) (HUVECs Intron 4 variant a/a): 0.97 (0.57)
- Peak release ONOO− (mean ± sd) (HUVECs Intron 4 variant a/a): 421.11 (124.25) nmols/L
- Net increase over control NO (mean ± sd) (HUVECs Intron 4 variant b/a): 56.57 (67.97) nmols/L
- Net increase over control NO/ONOO− (mean ± sd) (HUVECs Intron 4 variant b/a): 0.28 (0.43)
